Results reported in patent US7091038B2, “Ecdysone receptor-based inducible gene expression system” (RheoGene, Inc., priority 2000, dated 2006).

Assays:
[1] = system: GAL4CfEcRVP16; assay: Transactivation of reporter gene through switch 1.6 in CHO cells; type: cell-based, Choristoneura fumiferana; conditions: switch 1.6, pGAL4RELuc
Protocol: This construct was prepared so that both the GAL4 DNABD and the VP16AD were placed on the same molecule. GAL4DNABD (SEQ ID NO: 43) and VP16AD (SEQ ID NO: 49) were fused to CfEcRDEF (SEQ ID NO: 3) at N-and C-termini respectively.
(§1) The cells were harvested and reporter activity was assayed.
(§2) Cells were harvested 24–48 hr after adding ligands. […] Twenty μl of lysate was assayed.

[2] = system: CfEcRDEF:MmRXRDEF; assay: CfEcR-based yeast two-hybrid assay, LacZ reporter pSH118; type: cell-based, Choristoneura fumiferana; Mus musculus
From the text: This construct results in a LexA:CfEcRDEF fusion that is expressed under the GAL1 promoter.
The D, E, and F domains from mouse (Mus musculus) RXR α (“MmRXRDEF”; SEQ ID NO: 22) were fused to a B42 transactivation domain (“B42AD”; SEQ ID NO: 53) and placed under the control of a GAL1 promoter (SEQ ID NO: 73) in pB42AD (CLONTECH). This construct results in a B42AD:MmRXR-DEF fusion that is expressed under the GAL 1 promoter.
A reporter plasmid comprising a β-galactosidase gene (LacZ; SEQ ID NO: 74) under the control of an 8XLexA operon response element (“8XlexAop”; SEQ ID NO: 75) operably linked to a minimal TATAA region from the GAL1 promoter (p8op-lacZ from CLONTECH) was used to monitor inducible gene expression.
Saccharomyces cerevisiae yeast cells (EGY48; CLONTECH) were used in these experiments. Cells were maintained in liquid culture media with the appropriate drop out amino acids. Standard methods for culture and maintenance of the cells were followed. […]
DNA constructs pSH118, CfEcRDEF, and MmRXRA/BCDEF, MmRXRDEF, or […] were transfected into yeast cells. […] A colony from each group of transformants was grown in the liquid culture in the presence of 0, 0.04, 0.2, 1, 5 and 25 μM GS™-E. The reporter activity was measured as described above 4 hours after adding ligand. Total RLUs were calculated and the numbers on the bars of FIG. 16 show maximum fold induction observed for that group (see FIGS. 16 and 17).
The best performing transformed yeast strain from the analysis above comprising CfEcRDEF:MmRXRDEF was used to determine the induction activity of three steroid ligands (20E, PonA, MurA) and four non-steroid ligands (GS™-E, RH2485, RH5992, RH5849) in this yeast-based format. The yeast cells were cultured in the presence of 0, 0.l, 1, 10, 50 and 100 μM ligands for four hours and the reporter activity was measured as described above. Total RLUs were calculated and the numbers on the top of the bars of FIG. 18 show the maximum fold induction for that group (see FIGS. 18 and 19).

[3] = molecular target: DmVgRXR + MmRXR (Drosophila melanogaster, UniProt P34021, E282G/G283S/G286V); assay: Transactivation of reporter gene through switch 1.8 in CHO cells; type: cell-based, Drosophila melanogaster; Mus musculus; design: host or cells: CHO, NIH3T3, 293 or CV1 cells; conditions: switch 1.8, pIND(SP1)LacZ
From the text: This system was purchased from Invitrogen Corp., Carlsbad, California. It comprises a Drosophila melanogaster EcR (“DmEcR”) with a modified DNABD fused to VP16AD and placed under the control of a CMV promoter (SEQ ID NO: 68). Full length MmRXR (SEQ ID NO: 62) was placed under the control of the RSV promoter (SEQ ID NO: 69). The reporter, pIND(SP1)LacZ, contains five copies of a modified ecdysone response element (“EcRE”, E/GRE), three copies of an SPI enhancer, and a minimal heat shock promoter, all of which were placed upstream to the LacZ reporter gene.
as §1, §2

[4] = system: VP16CfEcR; assay: Transactivation of reporter gene through switch 1.7 in CV1 cells; type: cell-based, Choristoneura fumiferana; conditions: switch 1.7, pEcRELuc
Protocol: Six ecdysone response elements (“EcRE”; SEQ ID NO: 55) from the hsp27 gene were placed upstream of the promoter and a luciferase gene (SEQ ID NO: 66). This switch most probably uses endogenous RXR.
as §1
The cells were plated when they reached 50% confluency.
The same procedures described for NIH3T3 cells were followed for CV1 cells
as §2

Chain of DmVgRXR + MmRXR (P28700 whole entry, the tested form may be a part): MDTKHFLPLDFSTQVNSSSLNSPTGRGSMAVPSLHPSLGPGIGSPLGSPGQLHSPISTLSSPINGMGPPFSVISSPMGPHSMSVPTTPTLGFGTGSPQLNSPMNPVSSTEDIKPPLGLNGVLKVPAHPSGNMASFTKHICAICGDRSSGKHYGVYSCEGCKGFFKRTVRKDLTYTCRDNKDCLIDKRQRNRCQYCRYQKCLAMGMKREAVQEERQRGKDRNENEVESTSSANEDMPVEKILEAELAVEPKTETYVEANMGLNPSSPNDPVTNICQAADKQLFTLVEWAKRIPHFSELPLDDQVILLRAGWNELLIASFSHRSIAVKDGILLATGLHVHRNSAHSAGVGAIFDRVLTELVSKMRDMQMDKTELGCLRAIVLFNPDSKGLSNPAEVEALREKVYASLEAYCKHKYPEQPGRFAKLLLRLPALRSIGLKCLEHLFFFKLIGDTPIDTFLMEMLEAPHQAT
Chain of DmVgRXR + MmRXR (P34021 whole entry E282G/G283S/G286V, the tested form may be a part): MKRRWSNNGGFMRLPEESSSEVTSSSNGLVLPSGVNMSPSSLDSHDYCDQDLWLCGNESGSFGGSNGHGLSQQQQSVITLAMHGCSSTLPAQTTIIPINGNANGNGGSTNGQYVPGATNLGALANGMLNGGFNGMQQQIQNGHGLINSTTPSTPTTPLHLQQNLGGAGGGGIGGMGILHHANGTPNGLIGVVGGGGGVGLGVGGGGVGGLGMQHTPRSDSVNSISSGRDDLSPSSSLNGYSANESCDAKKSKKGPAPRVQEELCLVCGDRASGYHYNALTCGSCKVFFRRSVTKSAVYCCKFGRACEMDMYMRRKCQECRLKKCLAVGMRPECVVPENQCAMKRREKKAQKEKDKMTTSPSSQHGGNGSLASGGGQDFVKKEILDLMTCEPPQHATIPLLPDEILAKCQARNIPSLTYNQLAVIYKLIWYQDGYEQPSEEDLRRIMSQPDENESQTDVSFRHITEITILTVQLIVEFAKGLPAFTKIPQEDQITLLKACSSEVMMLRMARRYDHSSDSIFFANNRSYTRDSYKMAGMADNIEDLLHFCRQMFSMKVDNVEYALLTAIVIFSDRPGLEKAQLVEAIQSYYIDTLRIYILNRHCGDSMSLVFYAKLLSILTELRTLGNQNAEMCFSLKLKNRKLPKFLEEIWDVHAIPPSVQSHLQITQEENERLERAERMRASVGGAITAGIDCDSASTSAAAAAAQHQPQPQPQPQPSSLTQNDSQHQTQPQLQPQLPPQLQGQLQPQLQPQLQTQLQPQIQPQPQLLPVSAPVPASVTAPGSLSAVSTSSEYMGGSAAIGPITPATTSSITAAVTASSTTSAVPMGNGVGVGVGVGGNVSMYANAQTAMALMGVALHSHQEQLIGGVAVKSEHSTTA

Compound: CCc1c(OC)cccc1C(=O)NN(C(=O)c1cc(C)cc(C)c1)C(C)(C)C [N-(2-ethyl-3-methoxybenzoyl)-N′-(3,5-dimethylbenzoyl)-N′-t-butylhydrazine]
- Mean Fold Activation with 50 μM N-(2-ethyl-3-methoxybenzoyl)-N′-(3,5-dimethylbenzoyl)-N′-t-butylhydrazine [1]: 9 fold
- Fold induction ([2]; yeast cells, CfEcRDEF/MmRXRDEF, 0–25 μM, 4 hours after adding ligand): approximately 1800 fold
- Induction of gene expression (relative performance of ligands) ([2]; yeast strain comprising CfEcRDEF:MmRXRDEF, 0–100 μM ligand for four hours, FIGS. 18 and 19): induce gene expression better than any other ligand tested
- Mean Fold Activation with 50 μM N-(2-ethyl-3-methoxybenzoyl)-N′-(3,5-dimethylbenzoyl)-N′-t-butylhydrazine [3]: 14 fold
- Mean Fold Activation Through N-(2-ethyl-3-methoxybenzoyl)-N′-(3,5-dimethylbenzoyl)-N′-t-butylhydrazine [4]: 1 fold
